Data as given in ChEMBL document CHEMBL4507286 (2021).

Experiments:
[1] = molecular target: Tyrosine-protein kinase ZAP-70 (Homo sapiens) (UniProt P43403)
[2] = molecular target: Platelet-derived growth factor receptor beta (Homo sapiens) (UniProt P09619)
[3] = molecular target: Ephrin type-A receptor 6 (Homo sapiens) (UniProt Q9UF33)
[4] = molecular target: Phosphatidylinositol 4,5-bisphosphate 3-kinase catalytic subunit alpha isoform (Homo sapiens) (UniProt P42336)
[5] = molecular target: High affinity nerve growth factor receptor (Homo sapiens) (UniProt P04629)
[6] = molecular target: Serine/threonine-protein kinase 24 (Homo sapiens) (UniProt Q9Y6E0)
Serine/threonine-protein kinase 24 (Homo sapiens), sequence (Q9Y6E0 whole entry, looked up): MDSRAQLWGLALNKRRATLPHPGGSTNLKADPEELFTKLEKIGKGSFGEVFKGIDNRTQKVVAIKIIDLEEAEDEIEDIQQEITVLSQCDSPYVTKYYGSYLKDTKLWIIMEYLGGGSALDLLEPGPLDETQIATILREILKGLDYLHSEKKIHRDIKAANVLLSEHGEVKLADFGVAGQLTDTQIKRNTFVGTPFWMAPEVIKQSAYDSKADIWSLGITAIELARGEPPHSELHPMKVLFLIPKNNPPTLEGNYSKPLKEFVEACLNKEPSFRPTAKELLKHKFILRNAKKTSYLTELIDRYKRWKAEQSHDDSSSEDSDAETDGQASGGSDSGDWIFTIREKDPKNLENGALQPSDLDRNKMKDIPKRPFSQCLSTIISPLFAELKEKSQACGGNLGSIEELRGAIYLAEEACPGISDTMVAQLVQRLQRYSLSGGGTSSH

[7] = molecular target: BDNF/NT-3 growth factors receptor (Homo sapiens) (UniProt Q16620)
[8] = molecular target: Serine/threonine-protein kinase 38-like (Homo sapiens) (UniProt Q9Y2H1)
Serine/threonine-protein kinase 38-like (Homo sapiens), sequence (Q9Y2H1 2-464 limits assumed): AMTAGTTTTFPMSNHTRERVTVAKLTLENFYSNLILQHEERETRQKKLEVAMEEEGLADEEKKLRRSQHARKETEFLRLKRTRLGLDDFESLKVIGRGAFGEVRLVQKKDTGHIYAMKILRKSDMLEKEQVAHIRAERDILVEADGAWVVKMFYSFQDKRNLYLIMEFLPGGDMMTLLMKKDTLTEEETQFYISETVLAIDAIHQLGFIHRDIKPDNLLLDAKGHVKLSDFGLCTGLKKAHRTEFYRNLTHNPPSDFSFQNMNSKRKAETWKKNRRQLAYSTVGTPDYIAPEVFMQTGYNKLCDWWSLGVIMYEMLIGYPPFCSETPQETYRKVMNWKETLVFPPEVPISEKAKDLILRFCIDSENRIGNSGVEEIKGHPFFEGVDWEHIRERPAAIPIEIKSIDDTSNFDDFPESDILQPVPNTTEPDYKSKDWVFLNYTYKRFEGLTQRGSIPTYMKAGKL

[9] = molecular target: Serine/threonine-protein kinase RIO3 (Homo sapiens) (UniProt O14730)
[10] = molecular target: Eukaryotic translation initiation factor 2-alpha kinase 1 (Homo sapiens) (UniProt Q9BQI3)
Eukaryotic translation initiation factor 2-alpha kinase 1 (Homo sapiens), sequence (Q9BQI3 whole entry): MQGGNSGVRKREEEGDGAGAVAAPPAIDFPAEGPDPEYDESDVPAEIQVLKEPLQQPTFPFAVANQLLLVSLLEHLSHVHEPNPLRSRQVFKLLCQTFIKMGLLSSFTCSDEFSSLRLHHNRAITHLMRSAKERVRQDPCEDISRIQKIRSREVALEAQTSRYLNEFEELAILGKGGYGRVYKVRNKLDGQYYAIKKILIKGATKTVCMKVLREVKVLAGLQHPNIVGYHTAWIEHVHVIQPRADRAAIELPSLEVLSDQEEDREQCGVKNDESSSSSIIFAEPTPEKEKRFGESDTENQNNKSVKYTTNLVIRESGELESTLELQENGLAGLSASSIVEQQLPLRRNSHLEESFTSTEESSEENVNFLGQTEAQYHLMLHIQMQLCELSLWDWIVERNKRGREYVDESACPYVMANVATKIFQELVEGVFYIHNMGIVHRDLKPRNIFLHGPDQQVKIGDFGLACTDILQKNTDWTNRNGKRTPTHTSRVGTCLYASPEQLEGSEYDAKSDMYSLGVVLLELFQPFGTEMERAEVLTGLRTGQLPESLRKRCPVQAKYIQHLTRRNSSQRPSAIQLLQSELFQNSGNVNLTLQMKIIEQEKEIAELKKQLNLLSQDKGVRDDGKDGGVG

[11] = molecular target: Fibroblast growth factor receptor 3 (Homo sapiens) (UniProt P22607)
[12] = system: Tyrosine-protein kinase ABL1 (Homo sapiens), P00519 [F317I]
[13] = system: Fibroblast growth factor receptor 3 (Homo sapiens), P22607 [G697C]
Fibroblast growth factor receptor 3 (Homo sapiens), P22607 [G697C], sequence (P22607 whole entry G697C): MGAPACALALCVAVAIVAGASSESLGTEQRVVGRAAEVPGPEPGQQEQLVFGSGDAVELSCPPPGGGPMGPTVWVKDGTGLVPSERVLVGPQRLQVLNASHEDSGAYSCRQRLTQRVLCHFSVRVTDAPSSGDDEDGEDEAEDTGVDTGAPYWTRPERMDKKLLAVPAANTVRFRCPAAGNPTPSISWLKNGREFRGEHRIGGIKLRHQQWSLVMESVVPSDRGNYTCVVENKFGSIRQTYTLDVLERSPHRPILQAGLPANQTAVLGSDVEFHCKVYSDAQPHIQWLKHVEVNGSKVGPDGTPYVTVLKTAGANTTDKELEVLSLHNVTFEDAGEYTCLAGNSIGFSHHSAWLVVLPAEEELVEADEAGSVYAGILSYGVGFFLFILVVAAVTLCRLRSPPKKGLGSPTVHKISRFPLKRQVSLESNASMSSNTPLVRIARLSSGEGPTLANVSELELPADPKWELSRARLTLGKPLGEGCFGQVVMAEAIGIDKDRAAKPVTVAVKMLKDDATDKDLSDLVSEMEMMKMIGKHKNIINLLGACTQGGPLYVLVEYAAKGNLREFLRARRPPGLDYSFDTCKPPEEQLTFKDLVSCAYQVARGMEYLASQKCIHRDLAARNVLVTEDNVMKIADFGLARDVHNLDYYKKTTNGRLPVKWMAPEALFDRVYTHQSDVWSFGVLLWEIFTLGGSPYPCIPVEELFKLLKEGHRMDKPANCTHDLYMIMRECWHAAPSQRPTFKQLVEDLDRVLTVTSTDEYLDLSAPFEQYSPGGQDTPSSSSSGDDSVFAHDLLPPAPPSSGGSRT

[14] = molecular target: Serine/threonine-protein kinase MARK2 (Homo sapiens, UniProt Q7KZI7)
[15] = molecular target: RAF proto-oncogene serine/threonine-protein kinase (Homo sapiens) (UniProt P04049)
RAF proto-oncogene serine/threonine-protein kinase (Homo sapiens), sequence (P04049 whole entry): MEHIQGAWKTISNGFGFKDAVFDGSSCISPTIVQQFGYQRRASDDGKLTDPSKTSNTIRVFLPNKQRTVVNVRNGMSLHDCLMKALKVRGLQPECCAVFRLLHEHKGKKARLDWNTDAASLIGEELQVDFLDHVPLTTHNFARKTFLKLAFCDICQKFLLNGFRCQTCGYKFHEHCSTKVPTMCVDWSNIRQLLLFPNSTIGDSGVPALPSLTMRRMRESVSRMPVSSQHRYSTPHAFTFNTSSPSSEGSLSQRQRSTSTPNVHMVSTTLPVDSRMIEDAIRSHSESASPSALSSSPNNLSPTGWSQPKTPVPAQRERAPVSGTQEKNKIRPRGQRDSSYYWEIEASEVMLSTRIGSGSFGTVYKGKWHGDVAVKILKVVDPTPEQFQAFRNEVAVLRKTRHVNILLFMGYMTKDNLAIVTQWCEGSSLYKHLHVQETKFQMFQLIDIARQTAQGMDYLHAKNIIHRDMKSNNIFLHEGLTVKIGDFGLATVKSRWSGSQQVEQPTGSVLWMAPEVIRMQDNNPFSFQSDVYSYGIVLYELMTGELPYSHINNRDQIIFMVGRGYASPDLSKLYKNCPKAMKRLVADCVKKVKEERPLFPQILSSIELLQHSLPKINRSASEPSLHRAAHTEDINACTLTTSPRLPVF

[16] = molecular target: Membrane-associated tyrosine- and threonine-specific cdc2-inhibitory kinase (Homo sapiens) (UniProt Q99640)
[17] = molecular target: 1-phosphatidylinositol 3-phosphate 5-kinase (Homo sapiens) (UniProt Q9Y2I7)
[18] = molecular target: Dual specificity mitogen-activated protein kinase kinase 2 (Homo sapiens) (UniProt P36507)
[19] = molecular target: D(3) dopamine receptor (Homo sapiens) (UniProt P35462); settings: Compound concentration 10.0 uM
[20] = system: Hepatocyte growth factor receptor (Homo sapiens), P08581 [M1250T]
[21] = molecular target: MAP kinase-activated protein kinase 2 (Homo sapiens) (UniProt P49137)
[22] = molecular target: Maternal embryonic leucine zipper kinase (Homo sapiens) (UniProt Q14680)
[23] = molecular target: Non-receptor tyrosine-protein kinase TYK2 (Homo sapiens) (UniProt P29597)
[24] = molecular target: BMP-2-inducible protein kinase (Homo sapiens) (UniProt Q9NSY1)
[25] = system: Mast/stem cell growth factor receptor Kit (Homo sapiens), P10721 [D816H]
[26] = molecular target: Aurora kinase A (Homo sapiens) (UniProt O14965)
[27] = molecular target: Casein kinase I isoform gamma-3 (Homo sapiens) (UniProt Q9Y6M4)
[28] = molecular target: Glycogen synthase kinase-3 beta (Homo sapiens, UniProt P49841)
Glycogen synthase kinase-3 beta, sequence (P49841 whole entry, looked up): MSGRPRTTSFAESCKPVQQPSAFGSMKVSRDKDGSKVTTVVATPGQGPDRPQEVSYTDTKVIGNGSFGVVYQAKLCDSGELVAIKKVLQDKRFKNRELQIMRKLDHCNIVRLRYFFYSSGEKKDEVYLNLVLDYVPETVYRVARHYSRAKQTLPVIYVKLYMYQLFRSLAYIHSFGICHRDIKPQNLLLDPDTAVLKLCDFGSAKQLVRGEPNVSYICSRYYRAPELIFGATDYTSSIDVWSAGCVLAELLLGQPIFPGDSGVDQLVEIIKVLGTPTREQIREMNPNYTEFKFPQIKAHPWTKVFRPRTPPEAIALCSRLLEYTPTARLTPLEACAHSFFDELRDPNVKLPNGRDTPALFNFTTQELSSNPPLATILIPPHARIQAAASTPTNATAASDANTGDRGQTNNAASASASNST

[29] = molecular target: Rhodopsin kinase GRK1 (Homo sapiens) (UniProt Q15835)
[30] = molecular target: Macrophage-stimulating protein receptor (Homo sapiens) (UniProt Q04912)
[31] = molecular target: Serine/threonine-protein kinase PLK4 (Homo sapiens) (UniProt O00444)
[32] = molecular target: Mitogen-activated protein kinase kinase kinase 20 (Homo sapiens) (UniProt Q9NYL2)
[33] = molecular target: Casein kinase I isoform gamma-2 (Homo sapiens) (UniProt P78368)
Casein kinase I isoform gamma-2 (Homo sapiens), sequence (P78368 whole entry, looked up, canonical isoform): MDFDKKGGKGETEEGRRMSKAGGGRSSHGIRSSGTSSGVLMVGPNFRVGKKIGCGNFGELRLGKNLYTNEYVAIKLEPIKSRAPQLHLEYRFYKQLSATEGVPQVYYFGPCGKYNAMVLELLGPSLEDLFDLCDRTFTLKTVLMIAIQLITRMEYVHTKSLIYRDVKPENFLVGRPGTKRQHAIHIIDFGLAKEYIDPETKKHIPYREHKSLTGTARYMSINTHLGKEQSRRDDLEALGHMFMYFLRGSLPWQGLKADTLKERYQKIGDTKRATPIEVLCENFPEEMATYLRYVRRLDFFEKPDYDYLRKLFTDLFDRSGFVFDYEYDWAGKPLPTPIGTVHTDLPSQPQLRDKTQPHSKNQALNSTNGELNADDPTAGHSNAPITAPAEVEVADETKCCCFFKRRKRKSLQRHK

[34] = system: Receptor-type tyrosine-protein kinase FLT3 (Homo sapiens), P36888 [N841I]
[35] = system: Proto-oncogene tyrosine-protein kinase receptor Ret (Homo sapiens), P07949 [V804L]
[36] = system: Epidermal growth factor receptor (Homo sapiens), P00533 [UNDEFINED MUTATION]
Epidermal growth factor receptor (Homo sapiens), P00533 [UNDEFINED MUTATION], sequence (P00533 whole entry, looked up, stated change not applied): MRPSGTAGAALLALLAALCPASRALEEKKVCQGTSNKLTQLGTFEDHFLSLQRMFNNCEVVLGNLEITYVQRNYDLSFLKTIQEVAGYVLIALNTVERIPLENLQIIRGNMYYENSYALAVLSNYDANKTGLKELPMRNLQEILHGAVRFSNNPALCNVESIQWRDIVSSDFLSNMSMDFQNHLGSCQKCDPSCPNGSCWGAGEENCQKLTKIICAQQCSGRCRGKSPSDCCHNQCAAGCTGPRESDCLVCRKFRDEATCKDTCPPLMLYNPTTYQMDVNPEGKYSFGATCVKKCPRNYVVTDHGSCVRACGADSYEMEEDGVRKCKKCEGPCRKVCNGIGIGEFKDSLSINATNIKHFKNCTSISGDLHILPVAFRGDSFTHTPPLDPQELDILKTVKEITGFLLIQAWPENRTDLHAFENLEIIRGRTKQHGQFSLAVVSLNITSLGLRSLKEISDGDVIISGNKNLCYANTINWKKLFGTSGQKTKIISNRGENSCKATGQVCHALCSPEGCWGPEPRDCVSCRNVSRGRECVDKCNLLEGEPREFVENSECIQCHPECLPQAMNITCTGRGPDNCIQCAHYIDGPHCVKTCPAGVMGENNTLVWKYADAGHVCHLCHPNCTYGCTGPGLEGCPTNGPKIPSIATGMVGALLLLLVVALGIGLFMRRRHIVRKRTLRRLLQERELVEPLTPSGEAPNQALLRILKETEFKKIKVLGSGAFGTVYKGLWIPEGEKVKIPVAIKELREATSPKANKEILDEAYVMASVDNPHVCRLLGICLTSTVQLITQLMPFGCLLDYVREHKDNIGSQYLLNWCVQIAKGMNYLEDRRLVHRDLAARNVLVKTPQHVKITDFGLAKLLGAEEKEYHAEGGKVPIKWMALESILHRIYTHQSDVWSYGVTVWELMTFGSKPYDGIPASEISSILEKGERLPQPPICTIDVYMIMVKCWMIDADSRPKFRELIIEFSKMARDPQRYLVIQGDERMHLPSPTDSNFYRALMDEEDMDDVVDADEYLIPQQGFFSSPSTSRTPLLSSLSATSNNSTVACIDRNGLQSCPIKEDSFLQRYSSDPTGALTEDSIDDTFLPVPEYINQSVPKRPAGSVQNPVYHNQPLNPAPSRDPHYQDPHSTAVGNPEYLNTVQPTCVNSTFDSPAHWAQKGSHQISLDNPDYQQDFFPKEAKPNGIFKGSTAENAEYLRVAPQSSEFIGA

[37] = system: Mast/stem cell growth factor receptor Kit (Homo sapiens), P10721 [A829P]
[38] = molecular target: Casein kinase I isoform gamma-1 (Homo sapiens) (UniProt Q9HCP0)
[39] = system: ALK tyrosine kinase receptor (Homo sapiens), Q9UM73 [L1196M]
[40] = molecular target: RAC-gamma serine/threonine-protein kinase (Homo sapiens) (UniProt Q9Y243)
[41] = molecular target: Protein kinase C eta type (Homo sapiens) (UniProt P24723)
[42] = system: Epidermal growth factor receptor (Homo sapiens), P00533 [UNDEFINED MUTATION]; remark: listed apart in the source
[43] = system: Tyrosine-protein kinase ABL1 (Homo sapiens), P00519 [H396P]
[44] = molecular target: Cyclin-dependent kinase-like 5 (Homo sapiens) (UniProt O76039)
[45] = molecular target: G protein-coupled receptor kinase 4 (Homo sapiens) (UniProt P32298)
[46] = Compound concentration 1000.0 nM
[47] = Compound concentration 100.0 nM

C[C@H](NC(=O)Nc1cc2[nH]ncc2c(CO)n1)c1ccccn1 [ERKi-NC]
inactive: residual activity [1, 46] 77.9% | residual activity [2, 46] 100% | residual activity [3, 46] 89% | residual activity [4, 46] 100% | residual activity [5, 46] 81% | residual activity [6, 46] 98% | residual activity [7, 46] 68.5% | residual activity [8, 46] 100% | residual activity [9, 46] 90.7% | residual activity [10, 46] 100% | residual activity [11, 46] 81.8% | residual activity [12, 46] 100% | residual activity [13, 46] 100% | residual activity [14, 46] 100% | residual activity [15, 46] 90.2% | residual activity [16, 46] 100% | residual activity [17, 46] 100% | residual activity [18, 46] 90.7% | inhibition [19] 27.9% | residual activity [20, 46] 100% | residual activity [21, 46] 100% | residual activity [22, 46] 100% | residual activity [23, 46] 69.9% | residual activity [24, 46] 100% | residual activity [25, 46] 89.4% | residual activity [26, 46] 100% | residual activity [27, 46] 100% | residual activity [28, 46] 100% | residual activity [29, 46] 59.5% | residual activity [30, 46] 85.5% | residual activity [31, 46] 100% | residual activity [32, 46] 74.7% | residual activity [33, 46] 100% | residual activity [34, 46] 100% | residual activity [35, 46] 100% | residual activity [36, 46] 86.6% | residual activity [37, 46] 100% | residual activity [38, 46] 100% | residual activity [39, 46] 100% | residual activity [40, 46] 100% | residual activity [41, 46] 95.4% | residual activity [42, 46] 100% | residual activity [43, 46] 100% | residual activity [44, 46] 100% | residual activity [45, 46] 85.2%

C[C@@H](NC(=O)Nc1cc2[nH]ncc2c(CO)n1)c1ccccc1 [ERKi]
inactive: residual activity [1, 47] 95.8% | residual activity [2, 47] 95.8% | residual activity [3, 47] 100% | residual activity [4, 47] 86% | residual activity [5, 47] 90% | residual activity [6, 47] 100% | residual activity [7, 47] 63.6% | residual activity [8, 47] 72.7% | residual activity [9, 47] 100% | residual activity [10, 47] 92.8% | residual activity [11, 47] 85.4% | residual activity [12, 47] 100% | residual activity [13, 47] 100% | residual activity [14, 47] 100% | residual activity [15, 47] 100% | residual activity [16, 47] 99.6% | residual activity [17, 47] 76.7% | residual activity [18, 47] 84.8% | inhibition [19] -2.24% | residual activity [20, 47] 72.3% | residual activity [21, 47] 100% | residual activity [22, 47] 58.7% | residual activity [23, 47] 94.7% | residual activity [24, 47] 91.9% | residual activity [25, 47] 86.9% | residual activity [26, 47] 82% | residual activity [27, 47] 87.9% | residual activity [28, 47] 100% | residual activity [29, 47] 78.3% | residual activity [30, 47] 94.4% | residual activity [31, 47] 71.6% | residual activity [32, 47] 100% | residual activity [33, 47] 100% | residual activity [34, 47] 88.2% | residual activity [35, 47] 100% | residual activity [36, 47] 72.6% | residual activity [37, 47] 55.1% | residual activity [38, 47] 83% | residual activity [39, 47] 96.9% | residual activity [40, 47] 73.3% | residual activity [41, 47] 90.1% | residual activity [42, 47] 88.7% | residual activity [43, 47] 84% | residual activity [44, 47] 88.3% | residual activity [45, 47] 100%
